For data set [1], the system named is P. aeruginosa PAO1 biofilms. Put plainly: Biofilm quantification, crystal violet assay. Format: cell-based, Pseudomonas aeruginosa. The following applies: Pseudomonas aeruginosa, PAO1. As for the experimental part:
3.2.3. Biofilm Quantification Assays
The crystal violet assay was used to quantitatively analyze the biofilm, as previously described. P. aeruginosa PAO1 log phase was diluted 100 times with fresh LB medium and incubated for 3.5 h at 37 °C and 150 rpm. After that, the P. aeruginosa PAO1 bacterial culture was added to the 96-well plate. P. aeruginosa PAO1 bacterial culture in 90 μL was added to the experimental group, and 10 μL of the test compound at a final concentration of 325 μM, 162.5 μM, 81.25 μM, 40 μM, 20 μM, and 10 μM. Each well received 100 μL of bacterial culture for the control group and 100 μL of fresh LB medium for the blank group. After 20 h of incubation at 37 °C, the bacterial culture was removed from the 96-well plate, and it was dried after three PBS washes. Each well received […] of 0.1% crystal violet (CV) for a 15 min staining period. Each well was washed three times with PBS after the CV was removed. Lastly, each well received 150 μL of 33% glacial acetic acid, and a Biotek multi-function microplate reader was used to measure the absorbance value at 595 nm. The biofilm inhibition rate was calculated as follows = (OD595 blank − OD595 sample)/OD595 blank × 100%.

Data set [2] relates to P. aeruginosa PAO1. In words: Growth activity of PAO1 (OD600 growth curve). In kind it is cell-based, Pseudomonas aeruginosa. The following applies: 162.50, 81.25 and 40.00 μM, OD600 over 24 h. How it is done: 3.2.4. The Growth of the Compound of PAO1 QS Activity Analysis
P. aeruginosa PAO1 in log phase was diluted to OD600 = 0.05 in fresh LB medium. Then, 98 μL of diluted bacterial solution and 2 μL of Y-31 solution were added to the 96-well plate. The final concentration of Y-31 in each well was 162.50 μM, 81.25 μM, and 40.00 μM, respectively. The pores without the compound Y-31 were used as blank controls. The cells were incubated in an incubator at 37 °C for 24 h, and OD600 was measured at 0 h, 2 h, 4 h, 6 h, 8 h, 10 h, 12 h, and 24 h, respectively.

The subject of data set [3] is P. aeruginosa PAO1 rhamnolipid. Put plainly: Rhamnolipid quantification assay (orcinol). In kind it is cell-based, Pseudomonas aeruginosa. As for the experimental part: The rhamnolipid quantification assay was as follows: sulfuric acid–orcinol concentrated solution was used to examine the compound’s impact on P. aeruginosa PAO1 rhamnolipid. Initially, 50 μg/mL, 100 μg/mL, 200 μg/mL, and 400 μg/mL of a prepared solution of rhamnose standard at a concentration of 1 mg/mL in tilled water were diluted. Subsequently, 900 μL of 0.19% orcinol-concentrated sulfuric acid solution (0.19% orcinol (w/v), 50% H2SO4) was mixed with 100 μL of each concentration of rhamnose standard solution, and the mixture was incubated for 30 min at 80 °C in a water bath. After cooling to 25 °C, the OD value at 421 nm was measured. A standard curve of rhamnose concentration–absorbance values was established using Excel software 2019.
After cultivating P. aeruginosa PAO1 in LB medium for a logarithmic growth phase at 37 °C and 150 rpm, the bacterial culture was diluted with PPGAS solution (20 mM KCl, 20 mM NH4Cl, 0.5% glucose, 1.6 mM MgSO4, 120 mM Tris-HCl, and 1.0% peptone) to OD600 = 0.05. […] After centrifuging the bacterial cultures for 10 min at 1665 g, the supernatants were gathered. After extracting the supernatants twice using ethyl acetate, the organic layers were gathered and allowed to dry out at room temperature overnight. After resuspending the solid product in deionized water, 100 μL was added to 900 μL of 0.19% orcinol in 50% H2SO4, and the mixture was incubated for 30 min at 80 °C in a water bath. After cooling to 25 °C, the OD value at 421 nm was measured. The rhamnolipid content in the sample was determined according to a rhamnose standard curve (rhamnolipid content = 2.5 × rhamnose content).

Data set [4] has as its system P. aeruginosa PAO1 elastase. Put plainly: Elastase quantification (EnzCheck Elastase Assay Kit). In kind it is cell-based, Pseudomonas aeruginosa. As for the experimental part:
The method previously described was used to perform the elastase quantification experiment. In LB medium, P. aeruginosa PAO1 was cultivated until the logarithmic growth phase at 37 °C and 150 rpm. […] Elastase activity was detected using the EnzCheckTM Elastase Assay Kit after filtration with a 0.22 μm filter membrane.

Data set [5] relates to RAW 264.7 cells. In words: Cytotoxicity test, CCK8. In kind it is cell-based, mouse. The following applies: 162.50, 81.25 and 40.00 μM, 12 h. How it is done: The cell line used in this study was mouse mononuclear macrophage leukemia cell RAW 264.7. The cells were cultured in DMEM complete medium (basal medium containing 10% fetal bovine serum, 100 U/mL penicillin, and […] streptomycin) at 37 °C in a 5% CO2 incubator. When the cells covered 80% of the bottom of the plate, they were passaged more than three times.
Adherent RAW 264.7 cells were digested to detach the cells. Digestion was stopped via the addition of PBS and centrifuging at 1000 rpm for 5 min. The supernatant was discarded, and the cells were resuspended in 1 mL of medium for cell counting. Based on the counting results, the cell suspension was diluted. Then, 100 μL of the diluted cell suspension was added to a 96-well plate, with approximately 1 × 10^4 cells per well. The cells were then placed in the incubator to allow for adherence.
One well without cells received 100 μL of complete medium as a blank control, and one well with cells received 100 μL of complete medium as a negative control. […]
After incubation, the medium was removed, and 100 μL of 10% CCK8 solution was added to each well. The absorbance at 450 nm (OD450) was measured at 0.5 h, 1 h, and 2 h until OD450 = 1.
Cell viability was calculated using the following formula: cell activity = (OD450 compound − OD450 blank)/(OD450 negative control − OD450 blank) x 100%

Each structure is given as a SMILES string.

Take `O=C(CCCOc1ccc(I)cc1)NN1CCCOC1=O` [Y-31]: the inhibition at 40 µM in data set [1] (40 μM, read-out: P. aeruginosa PAO1 biofilm inhibition rate) turned out to be 40.4%; in data set [3] (Pseudomonas aeruginosa, PAO1, read-out: Inhibition rate of rhamnolipid, 40 μM), 0.4%; in data set [4] (Pseudomonas aeruginosa, PAO1, read-out: Inhibition rate of elastase, 40 μM) it was 11.3%. Also, the inhibition at 20.3125 µM in data set [1] (concentration 20.3125 (unit not given in Table S1; μM in method), 20 h, read-out: Inhibition ratio of biofilm) was found to be 21.1%. Moreover, the inhibition at 40.625 µM in data set [1] (concentration 40.625 (unit not given in Table S1; μM in method), 20 h, read-out: Inhibition ratio of biofilm) came out at 40.4%. Moreover, the inhibition at 81.25 µM in data set [1] (concentration 81.25 (unit not given in Table S1; μM in method), 20 h, read-out: Inhibition ratio of biofilm) stood at 39.5%. For the same compound, the inhibition at 162.5 µM in data set [1] (concentration 162.5 (unit not given in Table S1; μM in method), 20 h, read-out: Inhibition ratio of biofilm) worked out at 42.1%; in data set [3] (Pseudomonas aeruginosa, PAO1, read-out: Inhibition rate of rhamnolipid, 162.5 μM), 6.13%; in data set [4] (Pseudomonas aeruginosa, PAO1, read-out: Inhibition rate of elastase, 162.5 μM), 22.7%. The inhibition at 325 µM in data set [1] (concentration 325 (unit not given in Table S1; μM in method), 20 h, read-out: Inhibition ratio of biofilm) turned out to be 41%. The “Inhibition of the growth activity of PAO1” value in data set [2] is given as “no significant inhibition”. For the same compound, the “Inhibition rate of rhamnolipid” value in data set [3] (162.5 μM) is reported as 6.1%. Besides, the inhibition at 81.5 µM in data set [3] (Pseudomonas aeruginosa, PAO1, read-out: Inhibition rate of rhamnolipid, 81.5 μM) is 5.8%; in data set [4] (Pseudomonas aeruginosa, PAO1, read-out: Inhibition rate of elastase, 81.5 μM) it was 20%. Moreover, the “Inhibition rate of elastase” value in data set [4] (162.5 μM) stood at 22.7%. Besides, the “Cytotoxicity towards RAW 264.7 cells (cell viability)” value in data set [5] is on record as “did not exhibit significant cytotoxicity”.

(Values after PMC11123961, “Design, Synthesis, and Biological Evaluation of the Quorum-Sensing Inhibitors of Pseudomonas aeruginosa PAO1” (Molecules, 2024).)
